Experimental data: patent publication US20090326064A1, “Pesticidal composition” (priority 2006, published 2009)

Assays:
Assay type in all cases: physicochemical
Vapor pressure = details: at 25° C.
[1] = Stability under solar light
[2] = Stability in general-use solvents; details: such as acidic or alkaline aqueous solutions

Compound: CC=CC1C(C(=O)OCc2c(F)c(F)c(COC)c(F)c2F)C1(C)C (stereo not drawn) [Compound A, 2,3,5,6-tetrafluoro-4-methoxymethylbenzyl 1R-trans-3-(1-propenyl(E/Z=1/8))-2,2-dimethylcyclopropanecarboxylate]
- vapor pressure (Vapor pressure): 1.96×10^−3 Pa
- stability under solar light [1]: very stable
- stability in various general-use solvents [2]: stable
